From patent US20180028478A1, “ANTIVIRAL COMPOSITIONS DIRECTED AGAINST THE NUCLEOPROTEIN OF INFLUENZA VIRUSES” (priority 2011, published 2018) come the findings set out here.

Some targets named below: NP R416A mutant (Influenza A virus, UniProt P15682, R416A); NP Y148A (Influenza A virus, UniProt P15682, Y148A); NP (Influenza A virus, UniProt P15682, A237T/A472T/G34D/M105R/P283S).
A further assay concerns the target NP R152A (Influenza A virus, UniProt P15682, R152A). Format: binding, type-A Influenza virus.
The target in another assay is NP WT (Influenza A virus, UniProt P15682, A237T/A472T/G34D/M105R/P283S). Format: binding, type-A Influenza virus (H1N1 A/WSN/1933).
For assay [1], the target named is T1, NP R361A (Influenza A virus, UniProt P15682, R361A).
Assay [2] concerns the target nucleoprotein of SEQ ID NO: 2 (Influenza A virus, UniProt P15682, A237T/A472T/G34D/M105R/P283S).
Assay [3] addresses T1, NP R361A. This is another data set of the same source.

For `COc1ccc2cc(-c3c(C(=O)O)cccc3C(=O)O)ccc2c1` [Naproxen c0], at NP R152A, the “effect of R152A mutation on affinity” value is given as “reduces the affinity”.

Turning to `COc1ccc2cc(C(C)C(=O)O)ccc2c1` (centres unmarked) [Naproxen], the “competition with the association of RNA to NP (signal of NP-RNA complex)” value at NP WT was “signal decrease”. Besides, the “effect of R152A mutation on affinity” value on NP R152A was “no effect”. Besides, the “competition with the RNA / attachment” value on NP R361A [1] is recorded as “does not compete with the RNA any longer”. Moreover, on NP R416A mutant, the “attachment to R416A mutant” value is given as “does not fix”. In addition, the “competition with the RNA” value at NP Y148A is “does not compete with the RNA any longer”. Besides, in assay [2], the “beacon fluorescence in the presence of compound” value is listed as “fluorescence decreases”. For the same compound, the “direct attachment to surface-bound protein” value at NP was “direct attachment”; at NP R361A [3], “but not to R361A”.

Take `COc1ccc2cc(C(CC(=O)O)CC(=O)O)ccc2c1` [Naproxen A]: the “competition with the association of RNA to NP (signal of NP-RNA complex)” value on NP WT is given as “biphasic effect”. Besides, at NP R152A, the “effect of R152A mutation on affinity” value was “reduces the affinity”.
